Measurements taken from patent publication US20100048411A1, “SUBSTRATE FOR THE GROWTH OF CULTURED CELLS IN THREE DIMENSIONS” (REINNERVATE LIMITED, priority 2006, published 2010).

Key:
Format in all cases: cell-based, human
HepG2 cells [1] = experiment: MTT viable cell number of HepG2 cells challenged with methotrexate on 2-D and 3-D substrates
Method: (§1) The human hepatic carcinoma cell line, HepG2, was obtained from the American Type Culture Collection (ATCC). HepG2 cells were cultured at 37° C. in 5% CO2 in growth medium (Dulbecco's modified Eagle medium (D-MEM, Gibco/BRL) supplemented with 10% (v/v) fetal calf serum (FBS, Gibco/BRL), 100 μg.mL^−1 penicillin and 10 μg.mL^−1 streptomycin (Gibco/BRL)). Cells were passaged every 5-7 days. Confluent cultures of cells were washed with PBS, detached using trypsin/EDTA solution and cell number determined using a hemocytometer. Suspensions of HepG2 cells were then seeded at equal densities either directly into wells of a standard 6-welled plate (Nunc) or into modified well-inserts mounted with the polymer and located in wells of a 6-well plate. Cultures were maintained in growth medium which was changed every 3-4 days or as required.
The number of viable cells was determined using a commercially available calorimetric assay (Promega) based on Mosmann's original method for measuring cell activity involving the conversion of a tetrazolium salt into a blue formazan product detectable by a spectrophotometer (570 nm). The assay was performed according to the manufacturer's instructions on HepG2 cells cultured on 2-D and 3-D substrates for various periods under alternative growth conditions.
(§2) Cells were seeded on 2-D and 3-D surfaces in triplicate and left to settle and adhere for 24 hours. […] Cells were subsequently incubated for 1, 3, 7 or 10 days, after which cultures were sampled and assayed for cell number/viability and levels of albumin and transglutaminase were determined.

HepG2 cells [2] = experiment: albumin secretion of HepG2 cells challenged with methotrexate
Method: as §1, §2
The production of albumin is often used as an indicator of hepatocyte metabolic activity. Levels of albumin were determined using a commercially available kit (Bioassay systems) based on an established method that utilizes bromocresol green which forms a coloured complex specifically with albumin that is detectable at 620 nm. Known quantities of human albumin were used to establish the standard curve. Specific levels of albumin secretion were normalized to total protein levels (as determined by a standard Bradford assay).

HepG2 cells [3] = experiment: transglutaminase assay of HepG2 cells challenged with methotrexate
Method: as §1, §2
The leakage of this enzyme is often used as a marker for in vitro toxicity testing and its presence indicates damage to cell membranes. […] The level of transglutaminase was analysed by means of a quantitative enzymatic assay (Sigma, UK) as previously described.

HepG2 cells [4] = experiment: SEM and TEM morphology of HepG2 cells challenged with methotrexate
Method: Cells were seeded on 2-D and 3-D surfaces in triplicate and left to settle and adhere for 24 hours. The medium was then changed and replaced with medium containing different concentrations of MTX (no MTX (vehicle alone, control), 8 μM, 31 μM, and 125 μM). Cells were subsequently incubated for 1, 3, 7 or 10 days, after which cultures were sampled and assayed for cell number/viability and levels of albumin and transglutaminase were determined.
In preparation for SEM, cells grown on 2-D or 3-D substrates were fixed in 2% paraformaldehyde and 2.5% glutaraldehyde in Sorenson's phosphate buffer for 1 hour at room temperature. Samples were then rinsed in 0.1M phosphate buffer and immersed in 1% OsO4 (aq.) solution for 1 hour, then dehydrated in 50%, 70%, 95% and 100% ethanol for 5 minutes, four times for each respective ethanol change. Samples of fixed 2-D and 3-D cultures were then cut into smaller pieces (approximately 25 mm^2), mounted on specimen holders and dried from CO2 at 38° C. at 1200 psi. The samples were then sputter coated with a 7 nm layer of chromium and examined using a Hitachi S5200 SEM.
For TEM analysis, cells grown on 3-D substrates were fixed and treated as described above for SEM. However, subsequent to dehydration and being cut into small pieces, samples were embedded in resin (Araldite CY212, Agar Scientific) for 1 hour at 37° C. and then placed into pyramidal moulds at 60° C. overnight. For the preparation of cells grown on 2-D surfaces, cultures were fixed in 2% paraformaldehyde and 2.5% glutaraldehyde in Sorenson's phosphate buffer for 1 hour at room temperature. Cells were then scrapped from tissue culture plastic and pelleted at 15,000 rpm for 10 min. Pelleted cells were subsequently rinsed in 0.1M phosphate buffer and immersed in 1% OsO4 (aq.) solution for 1 hour, then dehydrated in 50%, 70%, 95% and 100% ethanol for 5 min, for times for each respective ethanol change. The dehydrated cell pellets were then soaked in resin (Araldite CY212) for 60 min at 37° C. […]

Structure (SMILES): CN(Cc1cnc2nc(N)nc(N)c2n1)c1ccc(C(=O)N[C@@H](CCC(=O)O)C(=O)O)cc1 [MTX, methotrexate]
- cell viability (MTT absorbance) (HepG2 cells [1]; 3-D cultures, 62 μM MTX, compared to control values): significant decrease in absorbance levels
- cell viability (MTT absorbance) (HepG2 cells [1]; HepG2 monolayers (2-D), 15 μM MTX, after 24 hours): gradual increase of absorbance
- cell viability (MTT absorbance) (HepG2 cells [1]; cells on 2-D surfaces, increasing MTX concentrations): visibly reduced
- cell viability (MTT absorbance) (HepG2 cells [1]; monolayers (2-D), 7 days, 125 μM MTX): sharp decrease in absorbance levels
- albumin secretion (metabolic activity) (HepG2 cells [2]; cells cultured on scaffolds (3-D), 15.6 μM MTX): did begin to reduce albumin secretion
- albumin secretion (metabolic activity) (HepG2 cells [2]; cells grown in 2-D, 8 μM MTX): sensitive
- albumin secretion (metabolic activity) (HepG2 cells [2]; cells grown in 3-D, 8 μM MTX): did not significantly influence albumin secretion
- transglutaminase levels (HepG2 cells [3]; 2-D cultures, 31 μM MTX and above, versus 3-D culture): significantly higher levels of transglutaminase
- transglutaminase levels (HepG2 cells [3]; 3-D cultures, increasing concentration of MTX): did not cause a significant increase in transglutaminase levels
- ultra-structure (TEM) (HepG2 cells [4]; 2-D cultures, 8 μM MTX): areas of cellular necrosis were also evident
- ultra-structure (TEM) (HepG2 cells [4]; 2-D cultures, high levels of MTX): most cells became necrotic
- ultra-structure (TEM) (HepG2 cells [4]; 3-D culture, 125 μM MTX): the nuclear membrane had an irregular morphology
